Reference: article PMC9403987 (Frontiers in Oncology, 2022)

Legend:
[1] = mouse, in vivo, po, 100 mg/kg; cited from earlier work
[2] = system: BN2289; experiment: Subcutaneous BN2289 glioblastoma xenograft; assay type: in vivo, BALB/c nude mice; settings: 25 mg/kg daily oral, 28 days, measured day 21
Description: (§1) The efficacy of GLR2007 was evaluated in human GBM and breast cancer orthotopic cell-line-derived xenografts in NOD/SCID mice (Shanghai Lingchang Biotechnology Co. Ltd, Shanghai, China) and BALB/c nude mice (Shanghai Sino-British SIPPR/BK Laboratory Animal Co. Ltd, Shanghai, China), and human lung, colorectal, and liver cancer subcutaneous cell-line-derived xenografts in BALB/c nude mice (Nanjing University National Resource Center, Nanjing, China, or Beijing Anikeeper Biotech Co., Beijing, China). Mice were maintained in humidity- and temperature-controlled conditions with food and water available ad libitum. For subcutaneous models, female BALB/c nude mice were inoculated at 4–8 weeks old with 3×10^6–1×10^7 tumor cells (see Table 1 for xenograft model cell types) in the right flank for tumor development. Randomization was performed when the mean tumor volume reached 118–171 mm^3.

[3] = system: MCF-7 tumor cells; experiment: Orthotopic MCF-7 breast cancer xenograft; assay type: in vivo, NOD/SCID mice; settings: 25 mg/kg daily oral
Description: as §1, with “libitum.” for “libitum. For subcutaneous models, female BALB/c nude mice were inoculated at 4–8 weeks old with 3×10^6–1×10^7 tumor cells (see Table 1 for xenograft model cell types) in the right flank for tumor development. Randomization was performed when the mean tumor volume reached 118–171 mm^3.”
In two breast cancer orthotopic xenograft models, female NOD/SCID mice were subcutaneously implanted with an estrogen pellet (17β-estradiol; Innovative Research of America, Sarasota, FL, USA) one day before tumor inoculation. Mice were inoculated at 6–7 weeks old with 2×10^7 MCF-7 tumor cells plus Matrigel in a 1:1 ratio in PBS at a mammary fat pad or in the right flank. Randomization was performed when the mean tumor volume reached 135–138 mm^3.

[4] = system: NCI-H1975; experiment: Subcutaneous NCI-H1975 non-small cell lung cancer xenograft; assay type: in vivo, BALB/c nude mice; settings: 25 mg/kg daily oral, 22 days, measured day 16
Description: as §1

[5] = system: COLO 205; experiment: Subcutaneous COLO 205 colorectal cancer xenograft; assay type: in vivo, BALB/c nude mice; settings: 25 mg/kg daily oral, 26 days, measured day 25
Description: as §1

[6] = system: LI1088; experiment: Subcutaneous LI1088 liver cancer xenograft; assay type: in vivo, BALB/c nude mice; settings: 25 mg/kg daily oral, 28 days, measured day 25
Description: as §1

[7] = parameters: method as in PMID 26149830, PMID 20354191; settings: within 5 minutes after intravenous administration of 1 mg/kg; cited from earlier work

| Compound | Kp,uu [1] | TGI (%) [2] [%] | TGI (%) ([3]; 21 days, measured day 21, 8 mice) | TGI (%) ([3]; 28 days, measured day 25, 10 mice) | TGI (%) [4] [%] | TGI (%) [5] [%] | TGI (%) [6] [%] | unbound brain-to-plasma partition coefficient (Kp,uu) [7] |
| --- | --- | --- | --- | --- | --- | --- | --- | --- |
| CN(C)C(=O)c1cc2cnc(Nc3ccc(N4CCNCC4)cn3)nc2n1C1CCCC1 [ribociclib] | 0.105 | – | – | – | – | – | – | – |
| CC(=O)c1c(C)c2cnc(Nc3ccc(N4CCNCC4)cn3)nc2n(C2CCCC2)c1=O [Palbociclib, palbociclib, reference compound] | – | 34.0 | 45.5 | 77.7 | 33.6 | 52.9 | 16.4 | 0.01 |
